Experiments:
MIAPaCa-2 cell line = assay: Cytotoxicity assay (MTT, 72 hours, daily administration) in MIAPaCa-2; conditions: Homo sapiens, MIA PaCa-2, read-out: % VIABILITY ± S.D.
Experimental: Human pancreatic ductal adenocarcinoma (PANC-1 and MIAPaCa-2) cell lines were purchased by Sigma Aldrich (Milan, Italy) and cultured in DMEM high glucose medium (EuroClone, Milan, Italy) supplemented with 10% of fetal bovine serum (FBS), 2 mM L-glutamine, 100 IU/mL penicillin, 100 mg streptomycin and 1 mM sodium pyruvate. Cell lines were maintained at 37° C. with 5% CO2 and 95% of humidity.
3×10^4 cells/mL were seeded in 96-well plates in a final volume of 100 L/well. After one day of incubation, compounds or vehicles, alone or in combination, were added and six replicates were used for each treatment and all experiments were repeated three times. In all the experiments, the treatment was daily added, after washing with fresh medium. After 72 hours cell viability was investigated by adding 0.8 mg/mL of 3-[4,5-dimethylthiazol-2-yl]-2,5 diphenyl tetrazolium bromide (MTT) (Sigma Aldrich) to the media. After 3 h the supernatant was removed, and the pellet of salt crystals was solubilized with 100 μL/well of DMSO. The absorbance of the sample against a background control was measured at 570 nm using an ELISA reader microliter plate (BioTek Instruments, Winooski, VT, USA).
Cytotoxicity in PDAC cell lines: The effect of CBD, MLT and AKBA in reducing cell viability was evaluated at 72 hours, post daily administration, in PDAC cell lines. Cells were treated with different doses of CBD, MLT and AKBA (up to 1 mg) and percentage of cell viability was evaluated by the MTT assay. […] The compounds were administered daily for 72 hours, as in previous experiments at the desired doses. […] MTT assay was used to analyse the cell cytotoxicity.

[1] = test system: pancreatic adenocarcinoma associated genes; assay: TaqMan Array gene expression in MIAPaCa-2, normalized for GAPDH; format: cell-based, Human; conditions: Mia-PACA-2, 24 hs, CBD 3.8, MLT 200, AKBA 7.5 micrograms/ml
Experimental: Total RNA from untreated or CBD, MLT, AKBA alone and in combination treated cell lines was extracted using Rneasy Mini kit (Qiagen, Milan, Italy). One microgram of total RNA from each sample was subjected to reverse transcription in a total volume of 20 μL using the High-Capacity cDNA Archive Kit (Applied Biosystem, Foster City, […], USA) according to the instructions. cDNAs were analyzed by qRT-PCR performed using an IQ5 Multicolor Real time PCR Detection system. Quantitative real-time gene expression was performed with the TaqMan® Array Human Pancreatic Adenocarcinoma 96-well Plate, containing 92 assays to pancreatic adenocarcinoma associated genes and 4 assays to candidate endogenous control genes, was purchased (Thermo Fisher, Grand Island, NY, USA) and used to evaluate the treatments in modulating PDAC-related genes (Table 1). Measurement of different housekeeping genes (GAPDH; HPRT1; GUSB) on the samples was used to normalize mRNA content. The gene expression levels of treated cell lines were expressed as relative fold compared with untreated or vehicle-treated cells.
To elucidate the molecular events induced by CBD, MLT and AKBA alone and in combination, 92 genes involved in PDAC progression and aggressiveness were evaluated by Taqman Array. Both cell lines were treated with CBD, MLT and AKBA alone and in combination, and the molecular pathways of PDAC associated gene were evaluated.
Target mRNA levels were normalized for GAPDH expression.

[2] = normalized for GAPDH, Akt pathways
[3] = normalized for GAPDH, Akt-pathways
[4] = normalized for GAPDH, DNA repair
[5] = normalized for GAPDH, NfkB pathways
[6] = normalized for GAPDH, Ras pathways
[7] = normalized for GAPDH, TGF patways
[8] = normalized for GAPDH, TGF-patways
[9] = normalized for GAPDH, angiogenesis
[10] = normalized for GAPDH, apoptosis
[11] = normalized for GAPDH, cell cycle
[12] = normalized for GAPDH, inflammation
[13] = normalized for GAPDH, proliferation

CC(=O)O[C@@H]1CC[C@@]2(C)[C@@H](CC[C@]3(C)[C@@H]2C(=O)C=C2[C@@H]4[C@@H](C)[C@H](C)CC[C@]4(C)CC[C@]23C)[C@@]1(C)C(=O)O [AKBA, (3R,4R,4aR,6aR,6bS,8aR,11R,12S,12aR,14aR,14bS)-3-acetyloxy-4,6a,6b,8a,11,12,14b-heptamethyl-14-oxo-1,2,3,4a,5,6,7,8,9,10,11,12,12a, 14a-tetradecahydropicene-4-carboxylic acid]
viability at 5 µg/mL (MIAPaCa-2 cell line): 110 ± 7.3% | viability at 7.5 µg/mL (MIAPaCa-2 cell line): 74.8 ± 6.2% | viability at 10 µg/mL (MIAPaCa-2 cell line): 55.3 ± 4.8% | viability at 15 µg/mL (MIAPaCa-2 cell line): 12.1 ± 0.9% | GAPDH relative expression ([1]; GAPDH is the normalizer): 1.00 | PK3CB relative expression [1, 2]: 0.19 | PK3CD relative expression [1, 2]: 0.06 | AKT1 relative expression [1, 3]: 0.18 | AKT2 relative expression [1, 3]: 0.49 | AKT3 relative expression [1, 3]: 0.00 | IGF1 relative expression [1, 3]: 0.00 | PK3CA relative expression [1, 3]: 0.02 | PK3R1 relative expression [1, 3]: 0.04 | BRCA2 relative expression [1, 4]: 0.12 | MDM2 relative expression [1, 4]: 0.05 | TP53 relative expression [1, 4]: 0.35 | HSP90AA1 relative expression ([1]; normalized for GAPDH, Heat sock protein): 0.26 | NFKB1 relative expression [1, 5]: 0.12 | NFKB2 relative expression [1, 5]: 0.12 | REL relative expression [1, 5]: 0.09 | RELA relative expression [1, 5]: 0.11 | RELB relative expression [1, 5]: 0.13 | RHOA relative expression [1, 5]: 0.33 | RHOB relative expression [1, 5]: 0.06 | BRAF relative expression [1, 6]: 0.22 | E2F1 relative expression [1, 6]: 0.17 | E2F3 relative expression [1, 6]: 0.08 | E2F4 relative expression [1, 6]: 0.22 | EGF relative expression [1, 6]: 0.00 | EGFR relative expression [1, 6]: 0.22 | ELK1 relative expression [1, 6]: 0.13 | ERBB2 relative expression [1, 6]: 0.08 | GRB2 relative expression [1, 6]: 0.46 | HBEGF relative expression [1, 6]: 0.53 | KRAS relative expression [1, 6]: 0.11 | MAP2K1 relative expression [1, 6]: 0.12 | MAP2K2 relative expression [1, 6]: 0.12 | MAPK1 relative expression [1, 6]: 0.72 | MAPK3 relative expression [1, 6]: 0.00 | RAF1 relative expression [1, 6]: 0.10 | RB1 relative expression [1, 6]: 0.17 | SOS1 relative expression [1, 6]: 0.11 | TGFB2 relative expression [1, 7]: 0.10 | TGFB3 relative expression [1, 7]: 0.05 | TGFBR1 relative expression [1, 7]: 0.06 | SMAD2 relative expression [1, 8]: 0.04 | SMAD3 relative expression [1, 8]: 0.22 | SMAD4 relative expression [1, 8]: 0.10 | TGFA relative expression [1, 8]: 0.02 | TGFB1 relative expression [1, 8]: 0.13 | TGFBR2 relative expression [1, 8]: 0.09 | FIGF relative expression [1, 9]: 0.00 | VEGFA relative expression [1, 9]: 0.41 | VEGFB relative expression [1, 9]: 0.16 | VEGFC relative expression [1, 9]: 0.11 | BCL2L1 relative expression [1, 10]: 0.28 | BCL2 relative expression [1, 10]: 0.00 | BIRC5 relative expression [1, 10]: 0.26 | CCNA2 relative expression [1, 11]: 0.12 | CCNB1 relative expression [1, 11]: 0.24 | CCND1 relative expression [1, 11]: 0.12 | CCND2 relative expression [1, 11]: 0.00 | CCNE1 relative expression [1, 11]: 0.12 | CCNE2 relative expression [1, 11]: 0.10 | CDC42 relative expression [1, 11]: 0.02 | CDK2 relative expression [1, 11]: 0.12 | CDK4 relative expression [1, 11]: 0.30 | CDKN1A relative expression [1, 11]: 0.34 | CDKN1B relative expression [1, 11]: 0.12 | CDKN2A relative expression [1, 11]: 0.14 | CDKN2B relative expression [1, 11]: 0.24 | CDKN2C relative expression [1, 11]: 0.14 | CDKN2D relative expression [1, 11]: 0.06 | IL6 relative expression [1, 12]: 0.00 | JAK1 relative expression [1, 12]: 1.32 | JAK2 relative expression [1, 12]: 0.05 | JAK3 relative expression [1, 12]: 0.04 | STAT1 relative expression [1, 12]: 0.34 | STAT2 relative expression [1, 12]: 0.12 | STAT3 relative expression [1, 12]: 0.20 | STAT6 relative expression [1, 12]: 0.12 | STATSB relative expression [1, 12]: 0.22 | MMP1 relative expression ([1]; normalized for GAPDH, invasion): 0.02 | MMP2 relative expression ([1]; normalized for GAPDH, invasion): 0.24 | MMP3 relative expression ([1]; normalized for GAPDH, invasion): 0.00 | MMP7 relative expression ([1]; normalized for GAPDH, invasion): 0.04 | MMP9 relative expression ([1]; normalized for GAPDH, invasion): 0.04 | PTGS2 relative expression ([1]; normalized for GAPDH, invasion): 0.10 | RAC1 relative expression ([1]; normalized for GAPDH, invasion): 0.12 | RAC2 relative expression ([1]; normalized for GAPDH, invasion): 0.01 | KIT relative expression [1, 13]: 0.00 | NOTCH1 relative expression [1, 13]: 0.06 | SRC relative expression [1, 13]: 0.15

Reference: patent US20240180872A1, “METHODS AND COMPOUNDS OF CANNABIDIOL, MELATONIN AND AKBA FOR TREATING PANCREATIC CANCER” (priority 2021, published 2024)
